Reference: PubChem BioAssay (NCI)
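All cell lines were grown in 96-well plates and treated with compound for 48 hours. GI50 marks 50% less growth. TGI: concentration producing complete growth inhibition.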

Experiments:
Experiment in all cases: NCI tumour cell line growth inhibition, 48 h
[1] = test system: SF-268 CNS
[2] = test system: SN12C renal
[3] = test system: EKVX NSCLC
[4] = test system: MOLT-4 leukemia
[5] = test system: SK-MEL-2 melanoma
[6] = test system: TK-10 renal
[7] = test system: CAKI-1 renal
[8] = test system: A498 renal
[9] = test system: HCC-2998 colon
[10] = test system: NCI-H226 lung

SMILES	GI50 [1] [µM]	TGI [1] [µM]	GI50 [2] [µM]	TGI [2] [µM]	GI50 [3] [µM]	TGI [3] [µM]	GI50 [4] [µM]	TGI [4] [µM]	GI50 [5] [µM]	TGI [5] [µM]	GI50 [6] [µM]	TGI [6] [µM]	GI50 [7] [µM]	TGI [7] [µM]	GI50 [8] [µM]	TGI [8] [µM]	GI50 [9] [µM]	TGI [9] [µM]	GI50 [10] [µM]	TGI [10] [µM]
CC(C)c1cc(C(=O)[O-])c(O)c(C(C)C)c1.CC(C)c1cc(C(=O)[O-])c(O)c(C(C)C)c1.CC(C)c1cc(C(=O)[O-])c(O)c(C(C)C)c1.CC(C)c1cc(C(=O)[O-])c(O)c(C(C)C)c1.CC(C)c1cc(C(=O)[O-])c(O)c(C(C)C)c1.CC(C)c1cc(C(=O)[O-])c(O)c(C(C)C)c1.[Cu+2].[Mn+2].[Mn+2]	35.5	82.7	20.9	49	23.3	> 100	20.3	66.1	20.4	42.6	39.5	91.7	30.9	53.3	34.1	82.2				
COC(=O)CCCNC(=O)C(=O)c1c(O)c(O)c(C(C)C)c2cc(C)c(-c3c(C)cc4c(C(C)C)c(O)c(O)c(C(=O)C(=O)NCCCC(=O)OC)c4c3O)c(O)c12	0.435	5.13	0.844	6.85	0.317	3.79			0.858	2.93	0.34	2.73	1.51	> 32.5	1.36	14.3	0.679	7.98	0.575	2.94
CCOC(=O)c1csc(-c2nc(CCNC(=O)c3ccccc3)sc2Cl)n1		> 100		> 100		> 100		> 100				> 100				> 100		> 100		> 100
O=C(COC(=O)c1cccc2c(=O)c3ccccc3[nH]c12)Nc1ccc(S(=O)(=O)Nc2ncccn2)cc1		> 100		> 100		> 100		71				> 100		> 100		> 100		> 100		> 100
CC(CCC(=O)O)c1ccc(Br)cc1 (stereo not given)		> 100		> 100		> 100		> 100		> 100		> 100		> 100				> 100		> 100
COc1cc(=O)oc(/C=C/C=C/C=C/C(C)=C\C2(C)OC(C)C(C)(O)C2O)c1C (stereo not given)		> 100		> 100		> 100		> 100		> 100		> 100		> 100		> 100				> 100
COc1cc(/C=C2\Cc3ccccc3C2=O)cc(OC)c1OC		> 100		> 100		> 100		> 100		> 100		> 100		> 100				> 100		> 100
COc1ccc(/C=C2\CCc3ccccc3C2=O)cc1OC		62.6		95.7		> 100		71.3		83.9		> 100		> 100		> 100		> 100		
N#CC(C(=O)O)C(c1c(Cl)cccc1Cl)C(C#N)C(=O)O (stereo not given)		> 100		> 100		> 100		> 100		> 100		> 100		> 100		> 100				> 100
CC1(C)Oc2ccccc2[N+]([O-])=C1c1ccccc1		> 100		> 100				> 100						> 100		> 100		> 100		
O=C(CC1SC(=Nc2ccccc2Cl)NC1=O)Nc1ccc(Cl)cc1 (stereo not given)		> 100		> 100		> 100				> 100		> 100		> 100		> 100		> 100		
